Reference: ChEMBL document CHEMBL1201862, “PubChem BioAssay data set” (2004)
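Test compounds were applied to cells in 96-well plates for 48 hours at 5 doses. The concentration for 50% growth inhibition is given as GI50.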 Calls of active or inactive are those of the source. No stated cut-off is given here; in the data, active = GI50 up to about 1.1 µM and inactive = higher.

Legend:
Assay in all cases: NCI anticancer screen, dose series, 48 h
KM12 = system: KM12
NCI-H460 = system: NCI-H460
UACC-62 = system: UACC-62
MCF7 = system: MCF7
SNB-19 = system: SNB-19
NCI-H226 = system: NCI-H226
UO-31 = system: UO-31
NCI-H23 = system: NCI-H23
MDA-MB-435 = system: MDA-MB-435
RPMI-8226 = system: RPMI-8226
SW-620 = system: SW-620
MDA-MB-231 = system: MDA-MB-231
OVCAR-8 = system: OVCAR-8
OVCAR-3 = system: OVCAR-3
HOP-62 = system: HOP-62
OVCAR-5 = system: OVCAR-5
NCI-H522 = system: NCI-H522
SF-268 = system: SF-268
NCI/ADR-RES = system: NCI/ADR-RES
HT-29 = system: HT-29

SMILES	GI50 (KM12)	GI50 (NCI-H460)	GI50 (UACC-62)	GI50 (MCF7)	GI50 (SNB-19)	GI50 (NCI-H226)	GI50 (UO-31)	GI50 (NCI-H23)	GI50 (MDA-MB-435)	GI50 (RPMI-8226)	GI50 (SW-620)	GI50 (MDA-MB-231)	GI50 (OVCAR-8)	GI50 (OVCAR-3)	GI50 (HOP-62)	GI50 (OVCAR-5)	GI50 (NCI-H522)	GI50 (SF-268)	GI50 (NCI/ADR-RES)	GI50 (HT-29)
CC(C)=CCC[C@]1(C)C=Cc2c(O)c3c(c(CC=C(C)C)c2O1)O[C@]12C(=C[C@@H]4CC1C(C)(C)O[C@@]2(C/C=C(/C)C(=O)O)C4=O)C3=O	1.02 µM (active)	1.24 µM (inactive)	1.73 µM (inactive)	0.376 µM (active)	2.12 µM (inactive)	0.774 µM (active)	1.33 µM (inactive)	0.938 µM (active)	1.03 µM (active)	0.368 µM (active)	0.452 µM (active)	1.07 µM (active)	0.643 µM (active)	1.38 µM (inactive)	1.69 µM (inactive)	1.5 µM (inactive)	0.406 µM (active)	1.45 µM (inactive)	1.92 µM (inactive)	0.461 µM (active)
Nn1c(Cc2ccccc2)n[nH]c1=O	> 100 µM (inactive)	> 10 µM (inactive)	> 100 µM (inactive)	> 100 µM (inactive)	> 100 µM (inactive)	> 100 µM (inactive)	> 100 µM (inactive)	> 100 µM (inactive)	> 100 µM (inactive)	> 100 µM (inactive)	> 100 µM (inactive)	> 100 µM (inactive)	> 100 µM (inactive)	> 100 µM (inactive)	> 100 µM (inactive)	> 100 µM (inactive)	> 100 µM (inactive)	> 100 µM (inactive)	> 100 µM (inactive)	> 100 µM (inactive)
CC(=O)Nc1ccc(C(=O)NN2C(=O)C(Cl)C2c2ccc(Cl)cc2)cc1 (stereo not given)	> 100 µM (inactive)	> 90.4 µM (inactive)	> 100 µM (inactive)	> 100 µM (inactive)	24.2 µM (inactive)	> 57.4 µM (inactive)	> 100 µM (inactive)	44.8 µM (inactive)	> 100 µM (inactive)	> 100 µM (inactive)	> 100 µM (inactive)	22.1 µM (inactive)	37 µM (inactive)	18.8 µM (inactive)	22.2 µM (inactive)	> 74.3 µM (inactive)	38.8 µM (inactive)	23.3 µM (inactive)	> 100 µM (inactive)	> 100 µM (inactive)
CNC(=S)NN=C1NCCCCN1	> 100 µM (inactive)	> 100 µM (inactive)	> 100 µM (inactive)	> 100 µM (inactive)	> 100 µM (inactive)	> 100 µM (inactive)	> 100 µM (inactive)	> 100 µM (inactive)	> 100 µM (inactive)	> 100 µM (inactive)	> 100 µM (inactive)	> 100 µM (inactive)	> 100 µM (inactive)	> 100 µM (inactive)	> 100 µM (inactive)	> 100 µM (inactive)	> 100 µM (inactive)	> 100 µM (inactive)	> 100 µM (inactive)	> 100 µM (inactive)
CC(=O)OC1CC(n2cc(F)c(=O)[nH]c2=O)OC1CO (stereo not given)	> 93.3 µM (inactive)	0.0177 µM (active)	0.42 µM (active)	0.22 µM (active)	2.72 µM (inactive)	49.1 µM (inactive)	0.635 µM (active)	2 µM (inactive)	15.7 µM (inactive)	21.9 µM (inactive)	10.8 µM (inactive)	> 55.2 µM (inactive)	0.668 µM (active)	13.5 µM (inactive)	0.152 µM (active)	> 46.7 µM (inactive)	2.15 µM (inactive)	0.0807 µM (active)	1.93 µM (inactive)	19.9 µM (inactive)
CCOC(=O)C1(Cc2ccccc2)Cc2cc3c(cc2C1)CCC3	31.9 µM (inactive)	31.3 µM (inactive)	30.1 µM (inactive)	23 µM (inactive)	55.8 µM (inactive)	25.2 µM (inactive)	40.9 µM (inactive)	27 µM (inactive)	30.2 µM (inactive)	20.6 µM (inactive)	28.6 µM (inactive)	30.4 µM (inactive)	47.3 µM (inactive)	41.1 µM (inactive)	37.2 µM (inactive)	25.2 µM (inactive)	30.3 µM (inactive)	52.4 µM (inactive)	48.1 µM (inactive)	18.4 µM (inactive)
CN1CCC2(c3ccccc3)CC(=O)/C(=C/c3ccc(Cl)c(Cl)c3)C1C2.[O-][Cl+3]([O-])([O-])O (stereo not given)	1.94 µM (inactive)	2.35 µM (inactive)	1.51 µM (inactive)	3.4 µM (inactive)	2.3 µM (inactive)	2.09 µM (inactive)	1.95 µM (inactive)	2.86 µM (inactive)	2.11 µM (inactive)	2.29 µM (inactive)	2.59 µM (inactive)	1.69 µM (inactive)	2.21 µM (inactive)	2.9 µM (inactive)	3.37 µM (inactive)	2.35 µM (inactive)	1.84 µM (inactive)	1.86 µM (inactive)	2.78 µM (inactive)	1.95 µM (inactive)
C=C1C(=O)O[C@@H]2C[C@@H]3[C@]4(CC[C@]5(C)[C@@H]([C@H](C)CC/C=C(\C)C=O)CC[C@@]35C)C[C@]4(CCC(=O)OC)[C@H]12	1.86 µM (inactive)	2.8 µM (inactive)	1.56 µM (inactive)	1.46 µM (inactive)	1.97 µM (inactive)	3.4 µM (inactive)	2 µM (inactive)	1.84 µM (inactive)	1.51 µM (inactive)	0.295 µM (active)	1.72 µM (inactive)	1.95 µM (inactive)	1.12 µM (active)	1.62 µM (inactive)	2.38 µM (inactive)	2.16 µM (inactive)	3.09 µM (inactive)	1.72 µM (inactive)	2.35 µM (inactive)	4.39 µM (inactive)
COc1cc(C2c3cc4c(cc3OC(NCCc3ccccc3)C2C)OCO4)cc(OC)c1OC (stereo not given)	0.316 µM (active)	0.418 µM (active)	0.388 µM (active)	0.383 µM (active)	0.455 µM (active)	0.871 µM (active)	0.457 µM (active)	0.413 µM (active)	0.111 µM (active)	0.319 µM (active)	0.316 µM (active)	0.249 µM (active)	0.441 µM (active)	0.378 µM (active)	0.614 µM (active)	1.75 µM (inactive)	0.248 µM (active)	0.736 µM (active)	0.31 µM (active)	0.321 µM (active)
N#Cc1ccnc(C(=O)N2CCCC2C(=O)O)c1 (stereo not given)	> 100 µM (inactive)	> 100 µM (inactive)	> 100 µM (inactive)	> 100 µM (inactive)	> 100 µM (inactive)	> 100 µM (inactive)	> 100 µM (inactive)	> 100 µM (inactive)	> 100 µM (inactive)	> 100 µM (inactive)	> 100 µM (inactive)	> 100 µM (inactive)	> 100 µM (inactive)	> 100 µM (inactive)	> 100 µM (inactive)	> 100 µM (inactive)	> 100 µM (inactive)	> 100 µM (inactive)	> 100 µM (inactive)	> 100 µM (inactive)
CCOC(=O)c1ccc(-c2cccs2)[nH]1	> 100 µM (inactive)	> 100 µM (inactive)	52.7 µM (inactive)	53.7 µM (inactive)	98.2 µM (inactive)	> 100 µM (inactive)	50 µM (inactive)	67.5 µM (inactive)	44.3 µM (inactive)	> 70.8 µM (inactive)	> 84.7 µM (inactive)	> 61.8 µM (inactive)	> 55.5 µM (inactive)	59.8 µM (inactive)	> 66.4 µM (inactive)	> 57 µM (inactive)	32.7 µM (inactive)	> 92 µM (inactive)	42.2 µM (inactive)	54 µM (inactive)
NC1=CN(CCCO)C2=N/C(=C\c3ccco3)C(=O)N12	> 100 µM (inactive)	> 100 µM (inactive)	> 100 µM (inactive)	> 100 µM (inactive)	> 100 µM (inactive)	> 100 µM (inactive)	94 µM (inactive)	> 100 µM (inactive)	> 100 µM (inactive)	> 100 µM (inactive)	> 100 µM (inactive)	> 100 µM (inactive)	> 100 µM (inactive)	> 100 µM (inactive)	> 100 µM (inactive)	> 100 µM (inactive)	> 100 µM (inactive)	> 100 µM (inactive)	> 100 µM (inactive)	> 100 µM (inactive)
CCCCCC/C=C\CCCCCCCCCC1=CC(=O)C=C(OC)C1=O [IRISQUINONE A]	3.75 µM (inactive)	2.72 µM (inactive)	4.05 µM (inactive)	4.46 µM (inactive)	2.89 µM (inactive)	2.52 µM (inactive)	4.57 µM (inactive)	3.37 µM (inactive)	3.81 µM (inactive)	2.21 µM (inactive)	4.6 µM (inactive)	4.36 µM (inactive)	0.593 µM (active)	3.98 µM (inactive)	3.48 µM (inactive)	5.6 µM (inactive)	2 µM (inactive)	5.93 µM (inactive)	3.8 µM (inactive)	3.19 µM (inactive)
C[N+](C)(C)CC(=O)N/N=C\c1c(O)ccc2ccccc12	32.4 µM (inactive)	18.1 µM (inactive)	28.2 µM (inactive)	59.7 µM (inactive)	63.4 µM (inactive)	21 µM (inactive)	33.3 µM (inactive)	36 µM (inactive)	39.3 µM (inactive)	32.1 µM (inactive)	63.5 µM (inactive)	92.9 µM (inactive)	26.3 µM (inactive)	35.9 µM (inactive)	26.7 µM (inactive)	57.1 µM (inactive)	16.2 µM (inactive)	10.7 µM (inactive)	33.7 µM (inactive)	> 100 µM (inactive)
